For 52 molecules, IC50 results are on record in US6979686B1, “Substituted pyrazoles as p38 kinase inhibitors” (Pharmacia Corporation, priority 2001, dated 2005).

SMILES strings stand for the structures. Where only a bound is given, the exact number is not on record here.

The target of one test is T1, human p38 kinase alpha (Homo sapiens, UniProt Q16539).
T1 construct: GST (N, cleaved yes); made in house; host or cells: E. coli DH10B
T1 sequence (Q16539 whole entry): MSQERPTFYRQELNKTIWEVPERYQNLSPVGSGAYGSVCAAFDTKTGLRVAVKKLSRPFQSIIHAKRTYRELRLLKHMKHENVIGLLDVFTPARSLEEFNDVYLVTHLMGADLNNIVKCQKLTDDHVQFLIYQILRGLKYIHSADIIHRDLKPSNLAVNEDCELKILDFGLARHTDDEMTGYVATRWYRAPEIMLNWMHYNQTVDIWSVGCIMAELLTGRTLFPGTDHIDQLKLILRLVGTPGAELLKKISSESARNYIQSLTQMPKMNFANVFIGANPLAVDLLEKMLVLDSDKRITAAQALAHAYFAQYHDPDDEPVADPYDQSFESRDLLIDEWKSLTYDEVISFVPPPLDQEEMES
The test can be described thus: p38 kinase in vitro assay, phosphorylation of biotinylated PHAS-I with 32P-ATP. The note with it: in vitro P38-alpha kinase inhibition; read-out: P38 alpha kinase IC50. The class given is biochemical. The method, then:
The coding region of the human p38a cDNA was obtained by PCR-amplification from RNA isolated from the human monocyte cell line THP.1. […] Random primer, dNTP's and Superscript™ reagents were all purchased from Life-Technologies, Gaithersburg, Mass. The reaction was incubated at 42° C. for 1 hour. Amplification of p38 cDNA was performed by aliquoting 5 μl of the reverse transcriptase reaction into a 100 μl PCR reaction containing the following: 80 μl dH2O, 2 μl 50 mM DNTP's, 1 μl each of forward and reverse primers (50 pmol/μl), 10 μl of 10×buffer and 1 μl Expand™ polymerase (Boehringer Mannheim). The PCR primers incorporated BamHI sites onto the 5′ and 3′ end of the amplified fragment, and were purchased from Genosys. […] The PCR amplification was carried out in a DNA Thermal Cycler (Perkin Elmer) by repeating 30 cycles of 94° C. for 1 minute, 60° C. for 1 minute and 68° C. for 2 minutes. After amplification, excess primers and unincorporated dNTP's were removed from the amplified fragment with a Wizard™ PCR prep (Promega) and digested with BamHI (New England Biolabs). The BamHI digested fragment was ligated into BamHI digested PGEX 2T plasmid DNA (PharmaciaBiotech) using T-4 DNA ligase (New England Biolabs) as described by T. Maniatis, Molecular Cloning: A Laboratory Manual, 2nd ed. […] The ligation reaction was transformed into chemically competent E. coli DH10B cells purchased from Life-Technologies following the manufacturer's instructions. Plasmid DNA was isolated from the resulting bacterial colonies using a Promega Wizard™ miniprep kit.
Expression of Human p38a:
Overnight cultures were grown in-Luria Broth (LB) containing […] ampicillin. The next day, 500 ml of fresh LB was inoculated with 10 ml of overnight culture, and grown in a 2 liter flask at 37° C. with constant shaking until the culture reached an absorbance of 0.8 at 600 nm. Expression of the fusion protein was induced by addition of isopropyl b-D-thiogalactosidse (IPTG) to a final concentration of 0.05 mM. The cultures were shaken for three hours at room temperature, and the cells were harvested by centrifugation. The cell pellets were stored frozen until protein purification.
Purification of p38 Kinase-α:
All chemicals were from Sigma Chemical Co. unless noted. Twenty grams of E. coli cell pellet collected from five 1 L shake flask fermentations was resuspended in a volume of PBS (140 mM NaCl, 2.7 mM KCl, 10 mM Na2HPO4, 1.8 mM KH2PO4, pH 7.3) up to 200 ml. The cell suspension was adjusted to 5 mM DTT with 2 M DTT and then split equally into five 50 ml Falcon conical tubes. The cells were sonnicated (Ultrasonics model W375) with a 1 cm probe for 3×1 minutes (pulsed) on ice. Lysed cell material was removed by centrifugation (12,000×g, 15 minutes) and the clarified supernatant applied to glutathione-sepharose resin (Pharmacia).
Glutathione-sepharose Affinity Chromatography:
The resin was collected by centrifugation (600×g, 5 min) and washed with 2×150 ml PBS/1% Triton X-100, followed by 4×40 ml PBS. To cleave the p38 kinase from the GST-p38 fusion protein, the glutathione-sepharose resin was resuspended in 6 ml PBS containing 250 units thrombin protease (Pharmacia, specific activity>7500 units/mg) and mixed gently for 4 hours at room temperature. The glutathione-sepharose resin was removed by centrifugation (600×g, 5 min) and washed 2×6 ml with PBS. The PBS wash fractions and digest supernatant containing p38 kinase protein were pooled and adjusted to 0.3 mM PMSF.
Mono O Anion Exchange Chromatography:
The thrombin-cleaved p38 kinase was further purified by FPLC-anion exchange chromatography.
Usually IC50 stands for the concentration needed to halve the response being measured. Consider `CC(NC(=O)NC(C)c1[nH]nc(-c2ccc(F)cc2)c1-c1ccncc1)c1ccccc1` (stereo not shown) [Example B-0414], for which the IC50 was 2540 nM. The same measure, in the same setting: in the case of `CCN(CC)C(=O)N[C@H](C)c1[nH]nc(-c2ccc(F)cc2)c1-c1ccncc1` [Example B-0420] it was 830 nM. Still for that read-out and setting: in the case of `COc1ccc(NC(=O)N[C@H](C)c2[nH]nc(-c3ccc(F)cc3)c2-c2ccncc2)c(OC)c1` [Example B-0422] it was less than 100 nM; in that of `C[C@@H](NS(=O)(=O)c1ccc(Br)cc1)c1[nH]nc(-c2ccc(F)cc2)c1-c1ccncc1` [Example B-0432], less than 100 nM.

Take `C[C@@H](NS(=O)(=O)c1ccc(Cl)cc1)c1[nH]nc(-c2ccc(F)cc2)c1-c1ccncc1` [Example B-0433]: the IC50 is less than 100 nM. `C[C@@H](NS(=O)(=O)Cc1ccccc1[N+](=O)[O-])c1[nH]nc(-c2ccc(F)cc2)c1-c1ccncc1` [Example B-0442]: the IC50 is less than 100 nM.

For the molecule `C[C@@H](NS(=O)(=O)c1cccc(Cl)c1Cl)c1[nH]nc(-c2ccc(F)cc2)c1-c1ccncc1` [Example B-0445], the IC50 is less than 100 nM.

With `C[C@@H](NS(=O)(=O)c1cccc(Br)c1)c1[nH]nc(-c2ccc(F)cc2)c1-c1ccncc1` [Example B-0455], the IC50 is less than 100 nM. On the same count and under the same terms, next, `CCCCOc1ccc(S(=O)(=O)NC(C)c2[nH]nc(-c3ccc(F)cc3)c2-c2ccncc2)cc1` (stereo not shown) [Example B-0456]: 1310 nM; `C[C@@H](NS(=O)(=O)c1cccc(Cl)c1)c1[nH]nc(-c2ccc(F)cc2)c1-c1ccncc1` [Example B-0462]: less than 100 nM. Still for that read-out and setting: in the case of `C[C@@H](NS(=O)(=O)c1cc(Cl)cc(Cl)c1)c1[nH]nc(-c2ccc(F)cc2)c1-c1ccncc1` [Example B-0464] it was less than 100 nM; in that of `C[C@@H](NS(=O)(=O)c1ccc(F)c(Cl)c1)c1[nH]nc(-c2ccc(F)cc2)c1-c1ccncc1` [Example B-0466], less than 100 nM.

On to `Cc1cccc(Cl)c1S(=O)(=O)N[C@H](C)c1[nH]nc(-c2ccc(F)cc2)c1-c1ccncc1` [Example B-0467], for which the IC50 was less than 100 nM. The same measure, in the same setting: in the case of `CC(=O)OCC(=O)NC(C)c1[nH]nc(-c2ccc(F)cc2)c1-c1ccncc1` (stereo not shown) [Example B-0530] it was 5530 nM. On to `CC(NC(=O)c1ccccc1I)c1[nH]nc(-c2ccc(F)cc2)c1-c1ccncc1` (stereo not shown) [Example B-0531], for which the IC50 amounted to 500 nM. On the same count and under the same terms, next, `CC(NC(=O)c1ccc(F)cc1)c1[nH]nc(-c2ccc(F)cc2)c1-c1ccncc1` (stereo not shown) [Example B-0533]: 1230 nM.

For `C=CCOC(=O)NC(C)c1[nH]nc(-c2ccc(F)cc2)c1-c1ccncc1` (stereo not shown) [Example B-0534], the IC50 turned out to be 410 nM. On the same count and under the same terms, in the case of `CC(NC(=O)C1CCC1)c1[nH]nc(-c2ccc(F)cc2)c1-c1ccncc1` (stereo not shown) [Example B-0537] it was 3440 nM; in that of `CC(NC(=O)C1CC1)c1[nH]nc(-c2ccc(F)cc2)c1-c1ccncc1` (stereo not shown) [Example B-0538], 1130 nM. Still for that read-out and setting: next, `CC(NC(=O)c1ccc(I)cc1)c1[nH]nc(-c2ccc(F)cc2)c1-c1ccncc1` (stereo not shown) [Example B-0540]: 3620 nM. With `CC(=O)OC(C)C(=O)NC(C)c1[nH]nc(-c2ccc(F)cc2)c1-c1ccncc1` (stereo not shown) [Example B-0542], the IC50 came out at 1550 nM. Same read-out and setting: in the case of `COCC(=O)NC(C)c1[nH]nc(-c2ccc(F)cc2)c1-c1ccncc1` (stereo not shown) [Example B-0543] it was 1560 nM. Still for that read-out and setting: in the case of `COc1ccccc1C(=O)NC(C)c1[nH]nc(-c2ccc(F)cc2)c1-c1ccncc1` (stereo not shown) [Example B-0544] it was 1120 nM; in that of `CC(NC(=O)c1ccccc1C(F)(F)F)c1[nH]nc(-c2ccc(F)cc2)c1-c1ccncc1` (stereo not shown) [Example B-0545], 1060 nM. The same measure, in the same setting: next, `CC(NC(=O)C1CCCC1)c1[nH]nc(-c2ccc(F)cc2)c1-c1ccncc1` (stereo not shown) [Example B-0553]: 1440 nM; `CC(NC(=O)c1cccnc1)c1[nH]nc(-c2ccc(F)cc2)c1-c1ccncc1` (stereo not shown) [Example B-0554]: 2580 nM; `CC(NC(=O)c1ccncc1)c1[nH]nc(-c2ccc(F)cc2)c1-c1ccncc1` (stereo not shown) [Example B-0555]: 1870 nM. As to `CC(NC(=O)c1ccccn1)c1[nH]nc(-c2ccc(F)cc2)c1-c1ccncc1` (stereo not shown) [Example B-0556], the IC50 amounted to 490 nM. `CC(Oc1ccccc1)C(=O)NC(C)c1[nH]nc(-c2ccc(F)cc2)c1-c1ccncc1` (stereo not shown) [Example B-0558]: the 50% inhibitory concentration (IC50) turned out to be 850 nM. The same measure, in the same setting: in the case of `CC(NC(=O)c1cnc2ccccc2n1)c1[nH]nc(-c2ccc(F)cc2)c1-c1ccncc1` (stereo not shown) [Example B-0561] it was 2070 nM; in that of `CC(NS(=O)(=O)c1ccc(F)cc1)c1[nH]nc(-c2ccc(F)cc2)c1-c1ccncc1` (stereo not shown) [Example B-0562], 220 nM; in that of `CC(NS(=O)(=O)C(C)C)c1[nH]nc(-c2ccc(F)cc2)c1-c1ccncc1` (stereo not shown) [Example B-0564], 820 nM.

As to `CC(NS(=O)(=O)Cc1ccccc1)c1[nH]nc(-c2ccc(F)cc2)c1-c1ccncc1` (stereo not shown) [Example B-0566], the IC50 is less than 100 nM. Regarding `CC(NS(=O)(=O)c1ccc(F)cc1F)c1[nH]nc(-c2ccc(F)cc2)c1-c1ccncc1` (stereo not shown) [Example B-0567], the IC50 was found to be 140 nM. The same measure, in the same setting: next, `CC(NS(=O)(=O)C(F)(F)F)c1[nH]nc(-c2ccc(F)cc2)c1-c1ccncc1` (stereo not shown) [Example B-0568]: 1220 nM. In the case of `CC(NS(=O)(=O)c1ccccc1F)c1[nH]nc(-c2ccc(F)cc2)c1-c1ccncc1` (stereo not shown) [Example B-0569], the IC50 was 150 nM. As to `CCCS(=O)(=O)NC(C)c1[nH]nc(-c2ccc(F)cc2)c1-c1ccncc1` (stereo not shown) [Example B-0570], the IC50 was 270 nM. `CCCCS(=O)(=O)NC(C)c1[nH]nc(-c2ccc(F)cc2)c1-c1ccncc1` (stereo not shown) [Example B-0571]: the IC50 is 380 nM. With `CCS(=O)(=O)NC(C)c1[nH]nc(-c2ccc(F)cc2)c1-c1ccncc1` (stereo not shown) [Example B-0572], the IC50 is 270 nM. Same read-out and setting: next, `CC(NS(=O)(=O)c1cccs1)c1[nH]nc(-c2ccc(F)cc2)c1-c1ccncc1` (stereo not shown) [Example B-0575]: 32 nM.

With `COc1ccc(S(=O)(=O)NC(C)c2[nH]nc(-c3ccc(F)cc3)c2-c2ccncc2)cc1OC` (stereo not shown) [Example B-0577], the IC50 came to 91 nM.

As to `CC(C)NC(=O)NC(C)c1[nH]nc(-c2ccc(F)cc2)c1-c1ccncc1` (stereo not shown) [Example B-0578], the IC50 worked out at 1880 nM. Consider `CC(NC(=O)N1CCOCC1)c1[nH]nc(-c2ccc(F)cc2)c1-c1ccncc1` (stereo not shown) [Example B-0582], for which the IC50 is 1030 nM. Still for that read-out and setting: in the case of `CC(NC(=O)Nc1ccc(F)cc1)c1[nH]nc(-c2ccc(F)cc2)c1-c1ccncc1` (stereo not shown) [Example B-0583] it was 3930 nM. In the case of `CC(NC(=O)N(C)C)c1[nH]nc(-c2ccc(F)cc2)c1-c1ccncc1` (stereo not shown) [Example B-0584], the IC50 was 660 nM.

Still in this test, the particulars now being: in vitro P38-alpha kinase; read-out: P38 alpha kinase IC50.
With `O=S(=O)(NCc1[nH]nc(-c2ccc(F)cc2)c1-c1ccncc1)c1ccc(Br)cc1` [Example B-0224], the IC50 is less than 100 nM.

Turning to `O=C(O)c1ccccc1S(=O)(=O)NCc1[nH]nc(-c2ccc(F)cc2)c1-c1ccncc1` [Example B-0228], the IC50 is 150 nM. Consider `COc1ccc(Br)cc1S(=O)(=O)NCc1[nH]nc(-c2ccc(F)cc2)c1-c1ccncc1` [Example B-0249], for which the IC50 is less than 100 nM. Still for that read-out and setting: next, `O=S(=O)(NCc1[nH]nc(-c2ccc(F)cc2)c1-c1ccncc1)c1ccc(-c2ccccc2)cc1` [Example B-0256]: less than 100 nM. Turning to `O=C(NCc1[nH]nc(-c2ccc(F)cc2)c1-c1ccncc1)c1c(Cl)cccc1Cl` [Example B-0294], the IC50 was 680 nM. Same read-out and setting: next, `Cc1noc(C)c1C(=O)NCc1[nH]nc(-c2ccc(F)cc2)c1-c1ccncc1` [Example B-0304]: 550 nM; `C[C@@H](NS(=O)(=O)/C=C/c1ccccc1)c1[nH]nc(-c2ccc(F)cc2)c1-c1ccncc1` [Example B-0388]: less than 100 nM.
